Here are results for two compounds from US7022484B2, “Methods for treating neuropathological states and neurogenic inflammatory states and methods for identifying compounds useful therein” (Board of Regents, The University of Texas System, priority 2000, dated 2006).

SMILES strings stand for the structures.

Test [1] deals with NR1 subunit. Briefly: Western blot of NR1 in cytosolic and nuclear extracts of SW982 cells. It counts as cell-based, human. The conditions noted are these: 12 hours, increasing concentrations of NMDA. Here is the method:
The cultured cell lines used in these studies were the human neuroblastoma clonal line, SHSY5Y, and the human synovial sarcoma clonal line, SW982, both available through the American Tissue Type Culture Collection (item number CRL 2266 and HTB-93, respectively). Cells were grown in Dulbecco's Modification of Eagles Medium (DMEM) without L-glutamine, with 4.5 grams/Liter glucose, and with 10% bovine fetal serum in a tissue culture incubator at 37° C. in a gaseous mixture of O2/CO2. Cells were routinely split as necessary to maintain proper cell density. Cells were removed from plates by adding TRYPSIN/EDTA in Hank's Balanced Salt solution. After cell counts, approximately 10,000 cells were plated per well in a culture dish. For experiments, the cells were plated into 35 mm Petri dishes or 6- or 24-well plates as needed. […]
Western blot analysis was used to measure NR1 in both nuclear and cytosolic or total protein extracts using established methods (Kaufmann et al., J. Neurochem., 76, 1099–1108 (2001)). […] After three washes with Tris-buffered saline, immunoreactive bands were detected by a chemiluminescent Western blot detection kit (Amersham, Buckingamshire, UK, Catalog Number RPN2106) according to the manufacturer's instructions.

Test [2] has as its system NR1 subunit. Put plainly: Immunocytochemistry of NR1 translocation in synovial clonal line SW982. It counts as cell-based, human. To be noted: synovial clonal cell model. Here is the method: The cultured cell lines used in these studies were the human neuroblastoma clonal line, SHSY5Y, and the human synovial sarcoma clonal line, SW982, both available through the American Tissue Type Culture Collection (item number CRL 2266 and HTB-93, respectively). Cells were grown in Dulbecco's Modification of Eagles Medium (DMEM) without L-glutamine, with 4.5 grams/Liter glucose, and with 10% bovine fetal serum in a tissue culture incubator at 37° C. in a gaseous mixture of O2/CO2. Cells were routinely split as necessary to maintain proper cell density. Cells were removed from plates by adding TRYPSIN/EDTA in Hank's Balanced Salt solution. After cell counts, approximately 10,000 cells were plated per well in a culture dish. For experiments, the cells were plated into 35 mm Petri dishes or 6- or 24-well plates as needed.
For immunocytochemistry experiments and some western blot experiments, SW982 cells were exposed to glutamate (1 μM to 10 μM), or glutamate analog NMDA (or related glutamate compound)(5 μM) and Genistein (10 mM). At various timepoints of exposure, including 4, 12, and 24 hours, cells were collected for Western blot measurement of NR1 or fixed with aldehydes and stained to visualize the location of glutamate receptor subunit NR1 using a specific antibody directed to either the C-terminus or the N-terminus of the NR1 protein. […]

The subject of test [3] is NR1 subunit. Put plainly: Immunocytochemistry of NR1 translocation in neuroblastoma clonal line SHSY5Y. Type of test: cell-based, human. The conditions noted are these: neuroblastoma clonal cell model.
The test system of the next test is rat arthritis model. Briefly: Paw withdrawal latency (PWL) to radiant heat in rat kaolin/carrageenan knee joint inflammation model. The conditions noted are these: spinal microdialysis pre-treatment; 4 hours after induction of arthritis. Type of test: in vivo. Here is the method: All studies followed the guidelines of the Institute Animal Care and Use Committee, in accordance with the guidelines of the National Institutes of Health. All animals were hosted in a room with a constant ambient temperature of 22° C. and 12 hour light/dark cycle with free access to food and water. Eighty-five Sprague-Dawley rats (250–300 grams) total were used in experiments conducted for biochemical, behavioral, and immunocytochemistry studies. […] On Day 2 baseline behavioral testing was followed by infusion of agents for 1.5 hours (pretreatment) prior to induction of knee joint inflammation under brief anesthesia. Behavioral testing was repeated 4 hours after induction of joint inflammation. Anesthetized animals were either transcardially perfused with aldehydes for immunohistochemical studies or fresh, frozen tissues collected for biochemical studies.
A microdialysis fiber was implanted into the spinal dorsal horn of anesthetized rats (sodium pentobarbital, 50 mg/kg) one day prior to the induction of arthritis according to the procedure of Skilling et al. (J. Neurochem., 51:127–132 (1988)), as described in Sluka et al. (Neurosci. Lett., 145:141–144 (1992)). Briefly, a small midline incision was made in the skin over the T12 vertebral level. The vertebrae were cleared of muscle and two 1 millimeter (mm) holes were drilled in the lateral aspect of both sides of the T12 vertebrae to expose the L4 spinal segment. A microdialysis fiber ([…], 45,000 MW cut-off, Hospal, AN69, Hospal Industrie, Meyzieu, France), was passed transversely across the deep dorsal horn and stabilized with dental cement. The microdialysis fiber was then passed through the holes in the vertebrae and transversely through the dorsal horn of the spinal cord. A 2 mm section of the microdialysis fiber lies in the dorsal horn at the level of L3–4 segment. The tubing was coated with epoxy except for a permeable portion passing through the spinal grey matter. The microdialysis fiber was connected to PE20 tubing (Becton Dickinson and Company, San Mateo, Calif.) which was tunneled under the skin to the nape of the neck. Alternatively as a systemic control for drug administration, the microdialysis fiber was implanted only in the subcutaneous tissue over the back muscle and tunneled to the neck. Artificial cerebrospinal fluid (aCSF) was made as described by Sorkin et al. (J. Neurosci. Methods, 23, 131–138 (1988)) and was infused (5 microliters/minute) for 1.5 hours and then the tube was heat-sealed for use on the following day.
Dose response curves were generated for Genistein with animals receiving Genistein spinally at concentration of 0.2 mM (n=3), 0.5 mM (n=3), 1 mM (n=9), and 2 mM (n=3). Animals received Lavendustin A or B spinally at concentrations of 0.1 mM (n=3), 0.5 mM (n=3), and 1 mM (n=5) as a positive and negative control for Genistein. […] Daidzein was tested at a dose of 1 mM (n=3). […] Eight additional animals received the vehicle, 50% DMSO in aCSF, as a control.
An acute inflammatory response restricted to the knee joint can be induced by the injection of 3% kaolin and 3% carrageenan (in sterile saline; 0.1 ml; pH 7.4) into the joint cavity while the animal is briefly anesthetized with sodium methohexital (Brevital, 60 mg/kg, i.p.). Kaolin and carrageenan were obtained from Fisher Scientific, St. Louis, Mo. The knee joint is flexed manually until the rat awakes (approximately 5–10 minutes). In this arthritis model in the awake rat, localized joint swelling, as well as limping and guarding of the limb, are well developed at 4 hours (Sluka et al., Pain, 59, 95–100 (1994)) when behavioral testing begins.
Fifty-five rats were used for behavioral studies. Four hours after induction of the arthritis, the joint is swollen and increased withdrawal responses to radiant heat and spontaneous guarding of the limb were noted. The increased responsiveness to noxious stimuli indicates the presence of secondary hyperalgesia. […]

In the next test the test system is NMDA currents. To be noted: patch clamp studies; cited from earlier work. In general terms: Patch clamp records ionic current or voltage across a cell membrane.
Test [4] deals with protein tyrosine kinase (PTK). The conditions noted are these: cited from earlier work.

As to `CN[C@H](CC(=O)O)C(=O)O` [NMDA, N-methyl-D-aspartate], in the test with NR1 subunit [1], the “NR1 in the cytosol” value is “dose-dependent reduction of NR1 in the cytosol” and the “NR1 in the nuclear compartment” value was “appearance of NR1 in the nuclear compartment”. Further, in the test with NR1 subunit [2], the “NR translocation to the nucleus” value is “replicated the visualization of NR translocation to the nucleus”. Besides, the “NR translocation to the nucleus” value with NR1 subunit [3] is given as “replicated the visualization of NR translocation to the nucleus”.

With `O=c1c(-c2ccc(O)cc2)coc2cc(O)ccc12` [Daidzein], the “development of secondary hyperalgesia” value with rat arthritis model was “ineffective in altering the nociceptive outcome of knee joint inflammation”. The “effect on NMDA currents” value with NMDA currents is “has no effect on NMDA currents”. Moreover, the PTK inhibitory activity entry in test [4] was “lacks PTK inhibitory activity”.
